The subject of series [1] is platelets. Kind of series: Platelet activation quality control by p-selectin expression. Particulars: control blood upon activation by ADP. Type of series: cell-based, human. As for the experimental part:
To test for a thrombic event, blood was collected from 4 donors, the as blood alone or blood treated with hu5C8 alone (240 μg/mL), sCD40L (10 ng/ml) alone or with combined hu5C8/sCD40L was incubated for 20 minutes at room temperature. Each sample was further incubated for 5 minutes with fluorescent labels for platelets and fibrinogen. As a standard quality control, the control blood was tested for platelet activation using p-selection expression. We confirmed that platelets in control blood were not activated but upon activation by ADP, over 90% of platelet was positive for p-selectin.

The subject of series [2] is thrombin anti-thrombin complex (TAT). Kind of series: Thrombin anti-thrombin (TAT) ELISA in chip effluent plasma. The format is cell-based, human. As for the experimental part: Thrombin converts fibrinogen into fibrin during clot formation, and anti-thrombin plays a role in maintaining homeostasis by inhibiting the effect of thrombin. Formation of TAT in the microdevice confirms that local and intrinsic generation of thrombin, a potent platelet agonist, occurs in the model and that counter regulatory mechanisms for coagulation are retained. Thus, blood sampled from the Vessel-On-Chip was analyzed for thrombin anti-thrombin complex (TAT), an accepted clinical biomarker for procoagulation^48,49. TAT refers to a factor released upon activation of the coagulation cascade and one of the biomarkers associated with thrombotic events occurring in patients affected with deep vein thrombosis (DVT) or Systemic lupus erythematosus (SLE)^45,46. An enzyme-linked immunosorbent assay (ELISA) was used to quantify the thrombin anti-thrombin complex (TAT).
Thrombin Anti-Thrombin (TAT) levels were analyzed in plasma from blood flowing out of the chip device by removing a sample from the outflow port. Thus TAT levels were evaluated in sample effluents collected from the outflow port of the chip using the Human TAT ELISA Kit (Siemens Healthineers) according to the user manual.
Blood sampled from the Vessel-On-Chip outflow port was analyzed for thrombin anti-thrombin complex (TAT), a factor released upon activation of the coagulation cascade and one of the biomarkers associated with thrombotic events occurring in patients affected with deep vein thrombosis (DVT) or SLE^45,46. TAT is an accepted clinical biomarker for procoagulation^48,49. An enzyme-linked immunosorbent assay (ELISA) was used to quantify the thrombin anti-thrombin complex (TAT).
(In general: ELISA stands for enzyme-linked immunosorbent assay.)

Another series relates to fibrin. In words: Vessel-On-Chip blood perfusion: fibrin deposition (fluorescent fibrinogen). The format is cell-based, human. As for the experimental part: (§1) Briefly, human blood was drawn in citrate buffer and used within 4 hours. Platelets were stained using fluorescently labeled non-blocking antibodies for the platelet surface marker CD41 and low dosages of fluorescent fibrinogen were added in order to visualize fibrin deposition. Blood was re-calcified in order to re-establish the full coagulation potential, then introduced in the biomimetic vessel-on-chip from the main inlet (embodiments of inlets shown in FIG. 18A-1, FIG. 18A-2 and FIG. 19C). The outlet of the chip was connected to a pulling syringe pump with a system of tubing and connectors made of medical grade silicon that excludes any metal components or potential causes of platelet activation (FIG. 5A).
When analyzing the formation of fibrin, […] of fluorescently labeled fibrinogen (Alexa 488, Invitrogen) was also added to the blood. While fluorescent fibrinogen was barely detected as a diffused fluorescence, fibrin deposition on inflamed cells and sparse clots was easily distinguished since fibrin formed filamentous structures produce a signal intensity that is clearly observed above a background threshold.
Chips perfused with blood samples were immediately imaged via fluorescence microscopy (Olympus IX83, 10× objective UPLFLN10X2, Orca-Flash4.0 CMOS Camera). […] Image processing and quantification was performed with an automatic macro compiled in ImageJ and numerical values corresponding to platelet coverage or fibrin florescence were collected and statistically analyzed in Graphpad Prism V7.
(§2) A percentage of signal coverage (or Platelet coverage) was computed from the binary image as the ratio of bright pixels to the total number of pixels in the image. Image processing and quantification was performed with an automatic macro compiled in ImageJ in order to ensure unbiased signal measurements. Numerical values corresponding to platelet coverage or fibrin fluorescence (signal intensity) were collected and statistically analyzed in Graphpad Prism V7.

Series [3] concerns platelets. Kind of series: Vessel-On-Chip blood perfusion: platelet coverage/aggregation by fluorescence imaging. Type of series: cell-based, human. As for the experimental part:
as §1
Platelets were labeled with human CD41-PE antibody (10 μL/ml, Invitrogen) directly added to the blood and incubated at room temperature for 5 minutes.
A medical grade plastic reservoir was mounted on the chip, then 800 μl of the blood sample was pipetted into the reservoir. The chip was perfused with the blood by withdrawing it at a rate of 60 μl/minute using a syringe pump. The citrated blood was re-calcified 2 minutes after the beginning of each experiment by adding 100 μl/ml of a solution containing 100 mM calcium chloride and 75 mM magnesium chloride to the blood to permit calcium- and magnesium-dependent platelet function and coagulation.
Chips perfused with blood samples were immediately imaged via fluorescence microscopy (Olympus IX83, 10× objective UPLFLN10X2, Orca-Flash4.0 CMOS Camera). Each chamber was inspected along its entire length and 5 images (about 0.25 cm) were captured from the central area of the chamber. Image processing and quantification was performed with an automatic macro compiled in ImageJ and numerical values corresponding to platelet coverage or fibrin florescence were collected and statistically analyzed in Graphpad Prism V7.
as §2

A further series has as its system ICAM1. In words: ICAM1 immunostaining of endothelium. The format is cell-based, human. Particulars: TNF-α stimulated endothelium.
The target of the next series is T1, FcγRIIa (Homo sapiens, UniProt P12318).
T1 construct: Blood from several human donors were aliquoted into groups for the following treatments; host or cells: platelets in citrated human whole blood from donors, perfused over HUVEC-lined chips
T1 sequence (P12318 34-317): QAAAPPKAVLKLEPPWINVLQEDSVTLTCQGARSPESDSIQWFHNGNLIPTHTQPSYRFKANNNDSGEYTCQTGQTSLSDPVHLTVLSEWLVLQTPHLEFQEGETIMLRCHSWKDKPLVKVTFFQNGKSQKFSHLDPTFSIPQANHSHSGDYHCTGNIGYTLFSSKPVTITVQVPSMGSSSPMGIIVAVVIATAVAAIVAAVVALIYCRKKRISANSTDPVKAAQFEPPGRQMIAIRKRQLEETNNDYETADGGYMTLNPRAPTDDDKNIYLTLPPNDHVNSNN
In words: Vessel-On-Chip hu5C8-mediated thrombosis, FcγRIIa dependence (platelet coverage, fibrin deposition, TAT). Particulars: FcγRIIa blocked with IV.3 (1 μg/ml) or non-FcγRIIa binding IgG2σ variant, with sCD40L 10 ng/ml. Type of series: cell-based. The text has this: Recent studies conducted on humanized mice expressing the human Fcγ receptors (FCGR2A) have shown that this receptor plays a role in thrombosis leading to the IC-mediated toxicity^12,16,21. […] In order to investigate if the ICs-induced thrombosis that we observed in our vessel-on-chip system also relies on an Fc-mediated mechanism, we used two different tool molecules: IgG2a and IV.3 (FIG. 25A). The IgG2σ variant of hu5C8 has an engineered Fc region^48 that eliminates affinity for the FcγRIIa, while the monoclonal antibody IV.3 is a blocking antibody binding to FcγRIIa. Briefly, equimolar concentrations of IgG2σ or hu5c8 were incubated with 10 ng/ml of sCD40L for 20 minutes to form ICIgG2σ or IC5c8, respectively.
Some of the blood samples were treated with IV.3 (1 μg/ml) for 10 minutes to block the FcγRIIa, and then incubated for 20 more minutes with ICs. Finally, blood alone (control) or blood incubated with IC5c8, ICIgG2σ or IV.3 was perfused through the biomimetic microfluidic-on-chip for about 10 minutes. We tested 15 donors and all the tested conditions described above were tested in duplicates and analyzed as percentage of platelet coverage based on fluorescence microscopic imaging (FIG. 25B). Five of the donors were also tested for fibrin deposition (FIG. 25C). Finally, effluents plasma obtained from a total of 7 of the donors (including the 5 mentioned before) were used to assess TAT via ELISA (FIG. 25D). […]
Blood from several human donors were aliquoted into groups for the following treatments: controls (PBS), sCD40L, combined hu5C8/sCD40L, combined hu5C8 (IgG2σ)/sCD40L combined, and combined hu5C8/sCD40L/IV.3. Each condition was tested with a minimum of 3 donors to a maximum of 15 donors, and all conditions were tested in duplicates and analyzed for platelet coverage (FIG. 25B), fibrin deposition (FIG. 25C), or increased formation of TAT measured in the eluates (FIG. 25D). […]

The conditions of series [4]: hu5C8: lupus nephritis clinical study; IDEC-131: Crohn's disease clinical trial; cited from earlier work.
The mark [5] stands for this setting: Eptifibatide 2 ug/ml, endothelium inflamed with TNF-α, n=4.
[6] abbreviates: pro-thrombotic stimulus vs blood alone, TNF-α 50 ng/ml 6 hours on endothelium, sCollagen 10 μg/ml in blood.

Entries after “also recorded” stand apart in the source; their conditions may differ. Positions of bridges follow the written chain, without caps; N, C: chain ends. Non-standard residues stand in square brackets, D forms with d. Residues, ends and D or L forms follow the SMILES beside them. hArg = N=C(N)NCCCC[C@H](N)C(=O)O; Mpa = O=C(O)CCS

Consider `Nc1ncnc2c1ncn2[C@@H]1O[C@H](COP(=O)(O)OP(=O)(O)O)[C@@H](O)[C@H]1O` [ADP], for which, in the series on platelets [1], the “platelets positive for p-selectin” value was “over 90%”.
As to `N=C(N)NCCCC[C@@H]1NC(=O)CCSSC[C@@H](C(N)=O)NC(=O)[C@@H]2CCCN2C(=O)[C@H](Cc2c[nH]c3ccccc23)NC(=O)[C@H](CC(=O)O)NC(=O)CNC1=O` [Eptifibatide] ([Mpa][hArg]GDWPC-NH2; disulfide 1-7), in series [2] (Eptifibatide treatment), the “effect on TAT increment associated with TNF-α-induced inflammation” value was “did not inhibit” and the “effect on TAT increment due to sCollagen treatment” value is “entirely suppressed”. Further, the “inhibition of fibrin clot formation” value in the series on fibrin (setting [5]) is on record as “significantly inhibited”. Further, the “fibrin signal remaining with Eptifibatide” value in the series with fibrin (Eptifibatide 2 ug/ml, samples treated with TNF-α) is “still detectable”. Besides, in the series on platelets [3] (setting [5]), the “inhibition of platelet aggregation” value was “significantly inhibited”. Moreover, the “inhibitory effect on platelet aggregation and fibrin clot formation” value in the series on platelets [3] (Eptifibatide 2 ug/ml, following treatment with sCollagen, n=4) is on record as “comparatively modest”. Besides, the “platelet adhesion (image analysis of multiple experiments)” value with platelets [3] (Eptifibatide 2 ug/ml, n=4) is listed as “completely inhibited”. Moreover, the “effect on platelet coverage and fibrin deposition in stimulated, pro-thrombotic conditions” value in the series on platelets [3] (Eptifibatide added, TNF-α or sCollagen, n=4) is “suppressed; also recorded: inhibited”.
In the case of TNF-α, the “levels of TAT in outflow samples” value in series [2] (after treatment, FIG. 22B) is reported as “significantly increased; also recorded: elevated levels”. In addition, in the series with fibrin (setting [6]), the “fibrin deposition / fibrin signal intensity” value was “significantly increased”. Moreover, the “ICAM1 expression in the endothelium compared to control” value with ICAM1 is recorded as “increased expression; also recorded: higher”. Further, in the series on platelets [3] (setting [6]), the platelet coverage result is “significantly increased”.
On to “hu5C8 (IgG2σ): IgG2σ variant of hu5C8 with an engineered Fc region that eliminates affinity for FcγRIIa”, for which the entries for the “hu5C8-mediated thrombosis on-chip (all endpoints)” value with FcγRIIa, with FcγRIIa (listed as IgG2σ) and with FcγRIIa (listed as hu5C8-IgG2σ) were “did not show signs of thrombosis”, “suppressed” and “not detected”, respectively.
As to “hu5C8: humanized monoclonal IgG1 antibody against CD40L (anti-CD154)”, in series [4], the “incidence of thromboembolic events” value is reported as 2/18. Moreover, the “treatment-related effects compared to untreated blood” value with platelets [3] (hu5C8 alone 240 μg/mL or sCD40L alone 10 ng/ml, 4 donors, 60 μl/minute) is “no significant treatment-related effects”.

These data come from patent publication US20180015455A1, “ADDITIVE CHANNELS” (Emulate Inc., priority 2016, published 2018).
